pIC50: −log10 of the molar value. Structures can show the parent of a compound that is named as a salt.
These compounds were tested against T1, BACE1 (Homo sapiens, UniProt P56817) (assay: Cellular Aβ-lowering assay (Abeta 40 AlphaLISA)). Conditions: HEK293 APP cells; 18-20 hrs incubation; Aβ 40 in culture supernatants by AlphaLISA; read-out: BACE1 cell act. Aβ40 IC50.
T1 construct: endogenous in cells; host or cells: HEK293 APP cells
Type: cell-based
Protocol: Cellular Aβ-lowering assay:
The Abeta 40 AlphaLISA Assay can be used. The HEK293 APP cells were seeded in 96 well Microtiter plates in cell culture medium (Iscove's, plus 10% (v/v) fetal bovine serum, penicillin/streptomycin) to about 80% confluency and the compounds were added at a 3× concentration in ⅓ volume of culture medium (final DMSO concentration was kept at 1% v/v). After 18-20 hrs incubation at 37° C. and 5% CO2 in a humidified incubator, the culture supernatants were harvested for the determination of Aβ 40 concentrations using Perkin-Elmer Human Amyloid beta 1-40 (high specificity) Kit (Cat#AL275C).
In a Perkin-Elmer White Optiplate-384 (Cat#6007290), 2 ul culture supernatants were combined with 2 μl of a 10× AlphaLISA Anti-hAβAcceptor beads+Biotinylated Antibody Anti-Aβ1-40 Mix (50 μg/mL/5 nM). After 1 hour room temperature incubation, 16 μl of a 1.25× preparation of Streptavidin (SA) Donor beads (25 μg/mL) were added and incubated for 30 minutes in the Dark. Light Emission at 615 nm was then recorded using EnVision-Alpha Reader. Levels of Aβ 40 in the culture supernatants were calculated as percentage of maximum signal (cells treated with 1% DMSO without inhibitor). The IC50 values were calculated using the Excel XLfit software.

T1 sequence (P56817 46-501): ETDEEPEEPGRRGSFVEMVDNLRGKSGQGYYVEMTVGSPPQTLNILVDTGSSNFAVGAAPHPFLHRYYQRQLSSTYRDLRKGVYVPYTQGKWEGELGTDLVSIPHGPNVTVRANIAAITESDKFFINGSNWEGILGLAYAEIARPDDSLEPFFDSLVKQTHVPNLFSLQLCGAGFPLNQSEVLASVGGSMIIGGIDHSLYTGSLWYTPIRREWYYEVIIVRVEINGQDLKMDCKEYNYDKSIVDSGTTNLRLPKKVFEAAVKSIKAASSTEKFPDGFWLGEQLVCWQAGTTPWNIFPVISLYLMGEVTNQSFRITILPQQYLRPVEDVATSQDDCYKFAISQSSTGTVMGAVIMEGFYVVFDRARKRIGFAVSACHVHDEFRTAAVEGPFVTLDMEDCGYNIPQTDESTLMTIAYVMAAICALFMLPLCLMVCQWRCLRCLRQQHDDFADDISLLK

pIC50 | Compound
6.37 | NC1=N[C@](CF)(c2cc(C#Cc3ncc(Cl)cn3)ccc2F)C[C@@H](C(F)(F)F)O1 [Example 63, (4S,6S)-4-[5-[2-(5-Chloropyrimidin-2-yl)ethynyl]-2-fluorophenyl]-4-(fluoromethyl)-6-(trifluoromethyl)-5,6-dihydro-1,3-oxazin-2-amine]
6.96 | Cc1cc(F)c([C@]2(C)C[C@@H](C(F)(F)F)OC(N)=N2)cc1C#Cc1ncc(Cl)cn1 [Example 72, (4S,6S)-4-(5-((5-Chloropyrimidin-2-yl)ethynyl)-2-fluoro-4-methylphenyl)-4-methyl-6-(trifluoromethyl)-5,6-dihydro-4H-1,3-oxazin-2-amine]
5.89 | Cc1cc(F)c([C@]2(C)C[C@@H](C(F)(F)F)OC(N)=N2)cc1-c1cnccc1F [Example 73, (4S,6S)-4-(2-Fluoro-5-(4-fluoropyridin-3-yl)-4-methylphenyl)-4-methyl-6-(trifluoromethyl)-5,6-dihydro-4H-1,3-oxazin-2-amine]
5.46 | NC1=N[C@](CF)(c2cc(C#Cc3cncc(Cl)c3)ccc2F)C[C@@H](C(F)(F)F)O1 [Example 61, (4S,6S)-4-(5-((5-Chloropyridin-3-yl)ethynyl)-2-fluorophenyl)-4-(fluoromethyl)-6-(trifluoromethyl)-5,6-dihydro-4H-1,3-oxazin-2-amine]
5.25 | COc1ncc(C#Cc2ccc(F)c([C@]3(C)C[C@@H](C(F)(F)F)OC(N)=N3)c2)cn1 [Example 53, (4S,6S)-4-[2-fluoro-5-[2-(2-methoxypyrimidin-5-yl)ethynyl]phenyl]-4-methyl-6-(trifluoromethyl)-5,6-dihydro-1,3-oxazin-2-amine]
5.45 | Cc1cc(F)c([C@]2(C)C[C@@H](C(F)(F)F)OC(N)=N2)cc1-c1cccc(C#N)c1F [Example 74, 5′-((4S,6S)-2-Amino-4-methyl-6-(trifluoromethyl)-5,6-dihydro-4H-1,3-oxazin-4-yl)-2,4′-difluoro-2′-methylbiphenyl-3-carbonitrile]
6.57 | Cc1cc(C#Cc2ccc(F)c([C@]3(CF)C[C@@H](C(F)(F)F)OC(N)=N3)c2)sn1 [Example 64, (4S,6S)-4-(2-Fluoro-5-((3-methylisothiazol-5-yl)ethynyl)phenyl)-4-(fluoromethyl)-6-(trifluoromethyl)-5,6-dihydro-4H-1,3-oxazin-2-amine]
4.59 | CCn1cc(C#Cc2ccc(F)c([C@]3(CF)C[C@@H](C(F)(F)F)OC(N)=N3)c2)cn1 [Example 58, (4S,6S)-4-(5-((1-Ethyl-1H-pyrazol-4-yl)ethynyl)-2-fluorophenyl)-4-(fluoromethyl)-6-(trifluoromethyl)-5,6-dihydro-4H-1,3-oxazin-2-amine]
6.70 | C[C@@]1(c2cc(C#Cc3ccc(C#N)cc3)ccc2F)C[C@@H](C(F)(F)F)OC(N)=N1 [Example 66, 4-((3-((4S,6S)-2-Amino-4-methyl-6-(trifluoromethyl)-5,6-dihydro-4H-1,3-oxazin-4-yl)-4-fluorophenyl)ethynyl)benzonitrile]
6.35 | C[C@@]1(c2cc(C#Cc3ccc(C#N)nc3)ccc2F)C[C@@H](C(F)(F)F)OC(N)=N1 [Example 46, 5-((3-((4S,6S)-2-amino-4-methyl-6-(trifluoromethyl)-5,6-dihydro-4H-1,3-oxazin-4-yl)-4-fluorophenyl)ethynyl)picolinonitrile]
7.23 | Cc1cc(C#Cc2ccc(F)c([C@]3(C)C[C@@H](C(F)(F)F)OC(N)=N3)c2)sn1 [Example 65, (4S,6S)-4-(2-Fluoro-5-((3-methylisothiazol-5-yl)ethynyl)phenyl)-4-methyl-6-(trifluoromethyl)-5,6-dihydro-4H-1,3-oxazin-2-amine]
6.19 | N#Cc1ccc(C#Cc2ccc(F)c([C@]3(CF)C[C@@H](C(F)(F)F)OC(N)=N3)c2)cc1 [Example 60, 4-((3-((4S,6S)-2-Amino-4-(fluoromethyl)-6-(trifluoromethyl)-5,6-dihydro-4H-1,3-oxazin-4-yl)-4-fluorophenyl)ethynyl)benzonitrile]
6.80 | C[C@@]1(c2cc(C#Cc3nn(C(F)F)cc3Cl)ccc2F)C[C@@H](C(F)(F)F)OC(N)=N1 [Example 68, (4S,6S)-4-(5-((4-chloro-1-(difluoromethyl)-1H-pyrazol-3-yl)ethynyl)-2-fluorophenyl)-4-methyl-6-(trifluoromethyl)-5,6-dihydro-4H-1,3-oxazin-2-amine]

Continued, compound first:

Compound | pIC50
C[C@@]1(c2cc(-c3nnc(-c4ccc(Cl)cc4)o3)ccc2F)C[C@@H](C(F)(F)F)OC(N)=N1 [Example 40, (4S,6S)-4-(5-(5-(4-Chlorophenyl)-1,3,4-oxadiazol-2-yl)-2-fluorophenyl)-4-methyl-6-(trifluoromethyl)-5,6-dihydro-4H-1,3-oxazin-2-amine] | < 4.40
C[C@@]1(c2cc(-c3cncc(Cl)c3)ccc2F)C[C@@H](C(F)(F)F)OC(N)=N1 [Example 13, (4S,6S)-4-(5-(5-Chloropyridin-3-yl)-2-fluorophenyl)-4-methyl-6-(trifluoromethyl)-5,6-dihydro-4H-1,3-oxazin-2-amine] | 6.82
C[C@@]1(c2cc(C#Cc3cccnc3)ccc2F)C[C@@H](C(F)(F)F)OC(N)=N1 [Example 22, (4S,6S)-4-(2-Fluoro-5-(pyridin-3-ylethynyl)phenyl)-4-methyl-6-(trifluoromethyl)-5,6-dihydro-4H-1,3-oxazin-2-amine] | 6.33
C[C@]1(c2cc(NC(=O)c3ccc(Cl)cn3)ccc2F)N=C(N)O[C@H](C(F)(F)F)[C@@H]1F [Example 4, N-(3-((4R,5R,6S)-2-Amino-5-fluoro-4-methyl-6-(trifluoromethyl)-5,6-dihydro-4H-1,3-oxazin-4-yl)-4-fluorophenyl)-5-chloropicolinamide] | 7.85
C[C@@]1(c2cc(NC(=O)c3ccc(Cl)cn3)cs2)C[C@@H](C(F)(F)F)OC(N)=N1 [Example 34, N-(5-((4S,6S)-2-amino-4-methyl-6-(trifluoromethyl)-5,6-dihydro-4H-1,3-oxazin-4-yl)thiophen-3-yl)-5-chloropicolinamide] | 6.48
C[C@@]1(c2cc(-c3cncnc3)ccc2F)C[C@@H](C(F)(F)F)OC(N)=N1 [Example 11, (4S,6S)-4-(2-fluoro-5-(pyrimidin-5-yl)phenyl)-4-methyl-6-(trifluoromethyl)-5,6-dihydro-4H-1,3-oxazin-2-amine] | 6.38
NC1=N[C@](CF)(c2cc(-c3nc4ccc(Cl)cc4o3)ccc2F)C[C@@H](C(F)(F)F)O1 [Example 45, (4S,6S)-4-(5-(6-Chlorobenzo[d]oxazol-2-yl)-2-fluorophenyl)-4-(fluoromethyl)-6-(trifluoromethyl)-5,6-dihydro-4H-1,3-oxazin-2-amine] | 5.79
C[C@@]1(c2cc(-c3cncnc3)c(F)cc2F)C[C@@H](C(F)(F)F)OC(N)=N1 [Example 17, (4S,6S)-4-(2,4-Difluoro-5-(pyrimidin-5-yl)phenyl)-4-methyl-6-(trifluoromethyl)-5,6-dihydro-4H-1,3-oxazin-2-amine] | 6.72
C[C@@]1(c2cc(-c3cccnc3F)c(F)cc2F)C[C@@H](C(F)(F)F)OC(N)=N1 [Example 18, (4S,6S)-4-(2,4-Difluoro-5-(2-fluoropyridin-3-yl)phenyl)-4-methyl-6-(trifluoro-methyl)-5,6-dihydro-4H-1,3-oxazin-2-amine] | 6.92
CC#Cc1cncc(-c2csc([C@]3(C)C[C@@H](C(F)(F)F)OC(N)=N3)c2)c1 [Example 29, (4S,6S)-4-Methyl-4-(4-(5-(prop-1-ynyl)pyridin-3-yl)thiophen-2-yl)-6-(trifluoromethyl)-5,6-dihydro-4H-1,3-oxazin-2-amine Hydrochloride] | 6.51
C[C@]1(c2cc(NC(=O)c3ccc(C#N)cn3)ccc2F)N=C(N)O[C@@H](C(F)(F)F)[C@@H]1F [Example 1, N-(3-((4R,5R,6R)-2-Amino-5-fluoro-4-methyl-6-(trifluoromethyl)-5,6-dihydro-4H-1,3-oxazin-4-yl)-4-fluorophenyl)-5-cyanopicolinamide] | 6.82
C[C@@]1(c2cc(-c3cccnc3F)cs2)C[C@@H](C(F)(F)F)OC(N)=N1 [Example 27, (4S,6S)-4-(4-(2-Fluoropyridin-3-yl)thiophen-2-yl)-4-methyl-6-(trifluoromethyl)-5,6-dihydro-4H-1,3-oxazin-2-amine Hydrochloride] | 5.86
C[C@]1(F)[C@H](C(F)(F)F)OC(N)=N[C@]1(C)c1cc(NC(=O)c2ccc(C#N)cn2)ccc1F [Example 9, N-(3-((4R,5R,6R)-2-Amino-5-fluoro-4,5-dimethyl-6-(trifluoromethyl)-5,6-dihydro-4H-1,3-oxazin-4-yl)-4-fluorophenyl)-5-cyanopicolinamide] | 6.36
C[C@@]1(c2cccc(NC(=O)c3ccc(C#N)cn3)c2F)C[C@@H](C(F)(F)F)OC(N)=N1 [Example 37, N-(3-((4S,6S)-2-Amino-4-methyl-6-(trifluoromethyl)-5,6-dihydro-4H-1,3-oxazin-4-yl)-2-fluorophenyl)-5-cyanopicolinamide] | 6.85
C[C@@]1(c2cc(NC(=O)c3ccc(C#N)cn3)cs2)C[C@@H](C(F)(F)F)OC(N)=N1 [Example 35, N-(5-((4S,6S)-2-Amino-4-methyl-6-(trifluoromethyl)-5,6-dihydro-4H-1,3-oxazin-4-yl)thiophen-3-yl)-5-cyanopicolinamide] | 7.06

Source: US20150376172A1, “FLUORO-[1,3]OXAZINES AS BACE1 INHIBITORS” (HOFFMANN-LA ROCHE INC., priority 2013, published 2015)
